Results from PubChem BioAssay AID274 (DTP/NCI, 2004).
Where “and” joins values, the source holds several entries; their conditions need not be identical. Identical values can stand only once. Inconclusive results and toxic doses are left out. The calls were made as follows: active = survival T/C of 150% or more; inactive = T/C below 125% in these data. Peptide text beside a SMILES is read from it. * marks the point of attachment. Trt = c1ccc(C(c2ccccc2)(c2ccccc2)*)cc1; Cbz = O=C(OCc1ccccc1)*

Tested on: BDF1 mice, Lewis lung carcinoma iv, survival T/C
Assay: NCI In Vivo Anticancer Drug Screen. Data for tumor model Lewis Lung Carcinoma (intravenous) in B6D2F1 (BDF1) mice
Conditions: higher = longer survival
Procedure: The antitumor activity of compounds was measured in mice bearing transplantable tumors. Survival or tumor size were measured and the results are expressed as the measurement made in the treated group (T) divided by the measurement made in the vehicle treated control group (C). The tumor model used in this assay is Lewis Lung Carcinoma (intravenous) in B6D2F1 (BDF1) mice

[1] = endpoint: median survival time, dose: 3.12 mg/kg/injection, schedule: Q01DX009 (ip), vehicle: saline with Tween-80
[2] = endpoint: median survival time, dose: 6.25 mg/kg/injection, schedule: Q01DX009 (ip), vehicle: saline with Tween-80
[3] = endpoint: median survival time, dose: 12.5 mg/kg/injection, schedule: Q01DX009 (ip), vehicle: saline with Tween-80
[4] = endpoint: median survival time, dose: 12.5 mg/kg/injection, schedule: Q01DX009 (ip), vehicle: saline
[5] = endpoint: median survival time, dose: 25.0 mg/kg/injection, schedule: Q01DX009 (ip), vehicle: saline
[6] = endpoint: median survival time, dose: 50.0 mg/kg/injection, schedule: Q01DX009 (ip), vehicle: saline
[7] = endpoint: median survival time, dose: 3.12 mg/kg/injection, schedule: Q01DX009 (ip), vehicle: saline
[8] = endpoint: median survival time, dose: 6.25 mg/kg/injection, schedule: Q01DX009 (ip), vehicle: saline
[9] = endpoint: median survival time, dose: 25.0 mg/kg/injection, schedule: Q01DX009 (ip), vehicle: saline with Tween-80
[10] = endpoint: median survival time, dose: 10.0 mg/kg/injection, schedule: Q01DX009 (ip), vehicle: saline
[11] = endpoint: median survival time, dose: 20.0 mg/kg/injection, schedule: Q01DX009 (ip), vehicle: saline
[12] = endpoint: median survival time, dose: 40.0 mg/kg/injection, schedule: Q01DX009 (ip), vehicle: saline
[13] = endpoint: median survival time, dose: 3.12 mg/kg/injection, schedule: Q01DX009 (ip), vehicle: water
[14] = endpoint: median survival time, dose: 6.25 mg/kg/injection, schedule: Q01DX009 (ip), vehicle: water
[15] = endpoint: median survival time, dose: 12.5 mg/kg/injection, schedule: Q01DX009 (ip), vehicle: water
[16] = endpoint: median survival time, dose: 25.0 mg/kg/injection, schedule: Q01DX009 (ip), vehicle: water

Measured: T/C

Nc1cc2[nH]cnc2c(=O)[nH]1
inactive: endpoint: mean survival time, dose: 95.0 mg/kg/injection, schedule: Q01DX009 (ip), vehicle: Klucel (hydroxypropylcellulose) (HPC) 118 % of control | endpoint: mean survival time, dose: 140.0 mg/kg/injection, schedule: Q01DX009 (ip), vehicle: Klucel (hydroxypropylcellulose) (HPC) 90 % of control

Cc1ccc[c]([Hg][Cl])c1N=Nc1ccccc1
inactive: endpoint: median survival time, dose: 0.78 mg/kg/injection, schedule: Q01DX009 (ip), vehicle: saline with Tween-80 100 % of control | endpoint: median survival time, dose: 1.56 mg/kg/injection, schedule: Q01DX009 (ip), vehicle: saline with Tween-80 105 % of control | [1] 90 % of control | [2] 115 % of control | [3] 94 % of control

CCCNc1ncnc2c1cnn2C
inactive: [4] 100 % of control | [5] 105 % of control | [6] 109 % of control

[CH3][Sn]([CH3])([Cl])[S]CCN
inactive: [7] 91 % of control | [8] 95 % of control | [4] 97 % of control | [5] 91 % of control

COc1cc(C(C)(C)C)cc(OC)c1C(O)(c1c(OC)cc(C(C)(C)C)cc1OC)c1c(OC)cc(C(C)(C)C)cc1OC
inactive: [2] 99 % of control and 106 % of control | [3] 98 % of control and 99 % of control | [9] 97 % of control and 102 % of control | endpoint: median survival time, dose: 50.0 mg/kg/injection, schedule: Q01DX009 (ip), vehicle: saline with Tween-80 99 % of control

COC(=O)C(CSC(c1ccccc1)(c1ccccc1)c1ccccc1)NC(=O)C(CC(N)=O)NC(=O)OCc1ccccc1 (stereo not drawn) (Cbz-Asn-Cys(Trt)-OMe; configuration not given here)
inactive: endpoint: median survival time, dose: 12.5 mg/kg/injection, schedule: Q01DX009 (ip), vehicle: distilled water + Tween-80 103 % of control | endpoint: median survival time, dose: 25.0 mg/kg/injection, schedule: Q01DX009 (ip), vehicle: distilled water + Tween-80 101 % of control | endpoint: median survival time, dose: 50.0 mg/kg/injection, schedule: Q01DX009 (ip), vehicle: distilled water + Tween-80 89 % of control | endpoint: median survival time, dose: 100.0 mg/kg/injection, schedule: Q01DX009 (ip), vehicle: distilled water + Tween-80 100 % of control | endpoint: median survival time, dose: 200.0 mg/kg/injection, schedule: Q01DX009 (ip), vehicle: distilled water + Tween-80 105 % of control | endpoint: median survival time, dose: 400.0 mg/kg/injection, schedule: Q01DX009 (ip), vehicle: distilled water + Tween-80 98 % of control

c1ccc([I+]c2ccccc2)cc1
inactive: endpoint: median survival time, dose: 1.0 mg/kg/injection, schedule: Q01DX009 (ip), vehicle: saline 98 % of control | endpoint: median survival time, dose: 2.0 mg/kg/injection, schedule: Q01DX009 (ip), vehicle: saline 100 % of control | endpoint: median survival time, dose: 4.0 mg/kg/injection, schedule: Q01DX009 (ip), vehicle: saline 109 % of control

COc1cc(NS(C)(=O)=O)ccc1Nc1c2ccccc2nc2ccccc12
inactive: endpoint: median survival time, dose: 3.6 mg/kg/injection, schedule: Q04DX003 (ip), vehicle: clinical formulation 104 % of control | endpoint: median survival time, dose: 6.0 mg/kg/injection, schedule: Q04DX003 (ip), vehicle: clinical formulation 108 % of control | endpoint: median survival time, dose: 16.7 mg/kg/injection, schedule: Q04DX003 (ip), vehicle: clinical formulation 121 % of control

COc1cc2cc[n+](C)c(Cc3ccccc3)c2cc1OC
active: [1] 285 % of control | [3] 161 % of control
inactive: [7] 106 % of control | [2] 91 % of control | [8] 108 % of control | [4] 116 % of control | [9] 95 % of control | [5] 120 % of control

CN(C)CCCNc1c2ccccc2nc2cccc([N+](=O)[O-])c12
inactive: endpoint: median survival time, dose: 44.8 micrograms/kg/injection, schedule: Q04DX003 (ip), vehicle: saline 92 % of control | endpoint: median survival time, dose: 124.0 micrograms/kg/injection, schedule: Q04DX003 (ip), vehicle: saline 92 % of control | endpoint: median survival time, dose: 346.0 micrograms/kg/injection, schedule: Q04DX003 (ip), vehicle: saline 86 % of control

CS(=O)(=O)[O-].CS(=O)(=O)[O-].NC1CCCCC1N.[Pt+4] (stereo not given)
inactive: endpoint: median survival time, dose: 0.31 mg/kg/injection, schedule: Q01DX009 (ip), vehicle: dextrose 113 % of control | endpoint: median survival time, dose: 0.62 mg/kg/injection, schedule: Q01DX009 (ip), vehicle: dextrose 98 % of control | endpoint: median survival time, dose: 1.25 mg/kg/injection, schedule: Q01DX009 (ip), vehicle: dextrose 91 % of control

Cc1c2cc[n+](CCN3CCCCC3)cc2c(C)c2c1[nH]c1ccc(O)cc12
inactive: endpoint: median survival time, dose: 1.56 mg/kg/injection, schedule: Q01DX009 (ip), vehicle: suspension in saline 105 % of control | endpoint: median survival time, dose: 3.12 mg/kg/injection, schedule: Q01DX009 (ip), vehicle: suspension in saline 100 % of control | endpoint: median survival time, dose: 6.25 mg/kg/injection, schedule: Q01DX009 (ip), vehicle: suspension in saline 109 % of control | endpoint: median survival time, dose: 12.5 mg/kg/injection, schedule: Q01DX009 (ip), vehicle: suspension in saline 118 % of control | endpoint: median survival time, dose: 25.0 mg/kg/injection, schedule: Q01DX009 (ip), vehicle: suspension in saline 122 % of control

C1CCC2[N-]CC3CCCCC3[N-]CC3CCCCC3[N-]CC3CCCCC3[N-]CC2C1.[Cu] (stereo not given)
inactive: endpoint: median survival time, dose: 0.78 mg/kg/injection, schedule: Q01DX009 (ip), vehicle: Klucel (hydroxypropylcellulose) (HPC) 106 % of control | endpoint: median survival time, dose: 3.13 mg/kg/injection, schedule: Q01DX009 (ip), vehicle: Klucel (hydroxypropylcellulose) (HPC) 112 % of control | endpoint: median survival time, dose: 6.25 mg/kg/injection, schedule: Q01DX009 (ip), vehicle: Klucel (hydroxypropylcellulose) (HPC) 113 % of control

O=C1CN(CN2CCOCC2)C(=O)CN1CN1CCOCC1
inactive: [4] 118 % of control | [5] 113 % of control | [6] 95 % of control | endpoint: median survival time, dose: 100.0 mg/kg/injection, schedule: Q01DX009 (ip), vehicle: saline 93 % of control | endpoint: median survival time, dose: 200.0 mg/kg/injection, schedule: Q01DX009 (ip), vehicle: saline 104 % of control

NCCCNCCSP(=O)(O)O
inactive: endpoint: median survival time, dose: 300.0 mg/kg/injection, schedule: Q01DX001 (ip), vehicle: saline 88 % of control | endpoint: median survival time, dose: 500.0 mg/kg/injection, schedule: Q01DX001 (ip), vehicle: saline 88 % of control

CS(=O)(=O)OCCCNCCCOS(C)(=O)=O
inactive: endpoint: median survival time, dose: 5.0 mg/kg/injection, schedule: Q01DX009 (ip), vehicle: saline 96 % of control | [10] 106 % of control and 114 % of control | [11] 108 % of control | [12] 113 % of control

CC(=O)OC1C2(CC3N4C(=O)C5(CO)SSC4(CC31O)C(=O)N5C)OC(C)C(C)(C)C2=O (stereo not given)
active: endpoint: median survival time, dose: 0.62 mg/kg/injection, schedule: Q01DX009 (ip), vehicle: saline 171 % of control

N=C(N)c1ccc(/C=C/c2ccc(C(=N)N)cc2O)cc1
inactive: [13] 96 % of control | [14] 101 % of control | [15] 101 % of control | [16] 111 % of control | endpoint: median survival time, dose: 50.0 mg/kg/injection, schedule: Q01DX009 (ip), vehicle: water 115 % of control

COc1ccc(-c2csc(=[N+]3CCCCC3)s2)cc1
inactive: endpoint: median survival time, dose: 1.56 mg/kg/injection, schedule: Q01DX009 (ip), vehicle: water 94 % of control | [13] 101 % of control | [14] 100 % of control | [15] 99 % of control | [16] 108 % of control

O=C(CCN1CC1)OCCOC(=O)CCN1CC1
inactive: endpoint: median survival time, dose: 1.5 mg/kg/injection, schedule: Q01DX009 (ip), vehicle: saline 111 % of control | endpoint: median survival time, dose: 3.0 mg/kg/injection, schedule: Q01DX009 (ip), vehicle: saline 107 % of control | endpoint: median survival time, dose: 6.0 mg/kg/injection, schedule: Q01DX009 (ip), vehicle: saline 99 % of control | endpoint: median survival time, dose: 24.0 mg/kg/injection, schedule: Q01DX009 (ip), vehicle: saline 107 % of control

CC1CCOS(=O)O1 (stereo not given)
inactive: [10] 100 % of control | [11] 94 % of control | [12] 95 % of control

Nc1ccccc1N
inactive: endpoint: median survival time, dose: 12.5 mg/kg/injection, schedule: Q01DX009 (ip), vehicle: Klucel (hydroxypropylcellulose) (HPC) 96 % of control | endpoint: median survival time, dose: 25.0 mg/kg/injection, schedule: Q01DX009 (ip), vehicle: Klucel (hydroxypropylcellulose) (HPC) 107 % of control | endpoint: median survival time, dose: 50.0 mg/kg/injection, schedule: Q01DX009 (ip), vehicle: Klucel (hydroxypropylcellulose) (HPC) 101 % of control | endpoint: median survival time, dose: 100.0 mg/kg/injection, schedule: Q01DX009 (ip), vehicle: Klucel (hydroxypropylcellulose) (HPC) 91 % of control
